In ChEMBL document CHEMBL5291721, “A preclinical secondary pharmacology resource illuminates target-adverse drug reaction associations of marketed drugs” (Nat Commun, 2023):

What was measured:
Acetylcholinesterase = Acetylcholinesterase (Homo sapiens, UniProt P22303); assay type: functional
D(3) dopamine receptor = D(3) dopamine receptor (Homo sapiens, UniProt P35462)
Prothrombin = Prothrombin (Homo sapiens, UniProt P00734); assay type: functional
[1] = target: 5-hydroxytryptamine receptor 2B (Homo sapiens, UniProt P41595); assay type: functional, cell-based
[2] = target: Voltage-gated inwardly rectifying potassium channel KCNH2 (Homo sapiens, UniProt Q12809); assay type: functional; details: read-out: AC50
Voltage-gated inwardly rectifying potassium channel KCNH2, sequence (Q12809 whole entry): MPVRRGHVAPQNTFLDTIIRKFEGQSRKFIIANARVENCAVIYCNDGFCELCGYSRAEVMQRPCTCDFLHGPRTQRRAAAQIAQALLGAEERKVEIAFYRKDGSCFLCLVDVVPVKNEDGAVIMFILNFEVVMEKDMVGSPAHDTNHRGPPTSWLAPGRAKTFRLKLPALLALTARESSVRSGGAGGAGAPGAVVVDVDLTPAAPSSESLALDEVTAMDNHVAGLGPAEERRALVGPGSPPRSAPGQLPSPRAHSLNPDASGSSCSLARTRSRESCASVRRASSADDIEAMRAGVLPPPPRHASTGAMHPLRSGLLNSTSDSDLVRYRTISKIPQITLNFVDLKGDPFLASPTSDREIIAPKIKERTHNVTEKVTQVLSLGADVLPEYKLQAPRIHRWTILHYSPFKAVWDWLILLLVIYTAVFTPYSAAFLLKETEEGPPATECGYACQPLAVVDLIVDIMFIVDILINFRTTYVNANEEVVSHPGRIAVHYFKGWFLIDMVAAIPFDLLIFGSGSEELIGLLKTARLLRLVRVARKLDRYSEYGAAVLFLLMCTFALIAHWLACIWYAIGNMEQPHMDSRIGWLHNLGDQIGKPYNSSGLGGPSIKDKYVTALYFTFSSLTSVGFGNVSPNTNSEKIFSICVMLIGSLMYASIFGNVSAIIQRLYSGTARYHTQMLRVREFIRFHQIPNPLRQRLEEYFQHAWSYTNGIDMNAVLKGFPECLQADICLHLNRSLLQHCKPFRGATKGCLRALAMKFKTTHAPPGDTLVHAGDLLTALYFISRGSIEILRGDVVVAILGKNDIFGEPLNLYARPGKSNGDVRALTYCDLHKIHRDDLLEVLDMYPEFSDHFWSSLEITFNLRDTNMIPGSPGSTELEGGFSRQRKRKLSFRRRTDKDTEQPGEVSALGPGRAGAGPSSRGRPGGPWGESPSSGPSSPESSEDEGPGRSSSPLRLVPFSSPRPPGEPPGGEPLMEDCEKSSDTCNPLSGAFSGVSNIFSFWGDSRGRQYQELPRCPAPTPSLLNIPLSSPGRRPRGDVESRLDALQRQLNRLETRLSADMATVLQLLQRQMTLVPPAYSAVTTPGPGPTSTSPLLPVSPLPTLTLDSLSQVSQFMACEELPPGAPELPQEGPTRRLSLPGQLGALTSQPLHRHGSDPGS

[3] = target: T1, Amine oxidase [flavin-containing] A (Homo sapiens, UniProt P21397); assay type: functional
T1 sequence (P21397 whole entry): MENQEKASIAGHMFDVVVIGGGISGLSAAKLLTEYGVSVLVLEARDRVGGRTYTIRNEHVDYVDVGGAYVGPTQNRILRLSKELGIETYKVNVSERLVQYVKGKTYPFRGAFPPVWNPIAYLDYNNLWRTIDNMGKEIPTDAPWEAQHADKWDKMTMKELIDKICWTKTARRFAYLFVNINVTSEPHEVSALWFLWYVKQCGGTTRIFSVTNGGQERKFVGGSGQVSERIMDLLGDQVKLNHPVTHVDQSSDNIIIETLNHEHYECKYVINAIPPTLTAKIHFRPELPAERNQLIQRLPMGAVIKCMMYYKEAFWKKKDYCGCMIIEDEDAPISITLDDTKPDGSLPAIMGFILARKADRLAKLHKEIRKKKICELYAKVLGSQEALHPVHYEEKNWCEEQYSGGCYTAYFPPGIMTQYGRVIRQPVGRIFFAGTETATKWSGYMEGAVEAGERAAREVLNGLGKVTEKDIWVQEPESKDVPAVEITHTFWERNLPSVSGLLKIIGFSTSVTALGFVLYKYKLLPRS

Mu-type opioid receptor = Mu-type opioid receptor (Homo sapiens, UniProt P35372)
Mu-type opioid receptor, sequence (P35372 whole entry): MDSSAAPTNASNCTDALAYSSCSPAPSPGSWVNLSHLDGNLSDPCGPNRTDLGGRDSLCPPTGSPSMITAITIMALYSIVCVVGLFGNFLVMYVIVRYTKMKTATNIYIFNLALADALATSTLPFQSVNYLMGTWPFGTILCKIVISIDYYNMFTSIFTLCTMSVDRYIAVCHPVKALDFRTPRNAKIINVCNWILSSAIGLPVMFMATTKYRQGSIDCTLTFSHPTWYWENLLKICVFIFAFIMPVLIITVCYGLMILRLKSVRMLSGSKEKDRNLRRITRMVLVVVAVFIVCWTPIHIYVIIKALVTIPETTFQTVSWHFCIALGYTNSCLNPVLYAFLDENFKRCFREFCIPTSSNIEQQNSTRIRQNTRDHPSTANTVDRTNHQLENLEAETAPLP

[4] = target: cGMP-inhibited 3',5'-cyclic phosphodiesterase 3A (Homo sapiens, UniProt Q14432); assay type: functional
cGMP-inhibited 3',5'-cyclic phosphodiesterase 3A, sequence (Q14432 whole entry): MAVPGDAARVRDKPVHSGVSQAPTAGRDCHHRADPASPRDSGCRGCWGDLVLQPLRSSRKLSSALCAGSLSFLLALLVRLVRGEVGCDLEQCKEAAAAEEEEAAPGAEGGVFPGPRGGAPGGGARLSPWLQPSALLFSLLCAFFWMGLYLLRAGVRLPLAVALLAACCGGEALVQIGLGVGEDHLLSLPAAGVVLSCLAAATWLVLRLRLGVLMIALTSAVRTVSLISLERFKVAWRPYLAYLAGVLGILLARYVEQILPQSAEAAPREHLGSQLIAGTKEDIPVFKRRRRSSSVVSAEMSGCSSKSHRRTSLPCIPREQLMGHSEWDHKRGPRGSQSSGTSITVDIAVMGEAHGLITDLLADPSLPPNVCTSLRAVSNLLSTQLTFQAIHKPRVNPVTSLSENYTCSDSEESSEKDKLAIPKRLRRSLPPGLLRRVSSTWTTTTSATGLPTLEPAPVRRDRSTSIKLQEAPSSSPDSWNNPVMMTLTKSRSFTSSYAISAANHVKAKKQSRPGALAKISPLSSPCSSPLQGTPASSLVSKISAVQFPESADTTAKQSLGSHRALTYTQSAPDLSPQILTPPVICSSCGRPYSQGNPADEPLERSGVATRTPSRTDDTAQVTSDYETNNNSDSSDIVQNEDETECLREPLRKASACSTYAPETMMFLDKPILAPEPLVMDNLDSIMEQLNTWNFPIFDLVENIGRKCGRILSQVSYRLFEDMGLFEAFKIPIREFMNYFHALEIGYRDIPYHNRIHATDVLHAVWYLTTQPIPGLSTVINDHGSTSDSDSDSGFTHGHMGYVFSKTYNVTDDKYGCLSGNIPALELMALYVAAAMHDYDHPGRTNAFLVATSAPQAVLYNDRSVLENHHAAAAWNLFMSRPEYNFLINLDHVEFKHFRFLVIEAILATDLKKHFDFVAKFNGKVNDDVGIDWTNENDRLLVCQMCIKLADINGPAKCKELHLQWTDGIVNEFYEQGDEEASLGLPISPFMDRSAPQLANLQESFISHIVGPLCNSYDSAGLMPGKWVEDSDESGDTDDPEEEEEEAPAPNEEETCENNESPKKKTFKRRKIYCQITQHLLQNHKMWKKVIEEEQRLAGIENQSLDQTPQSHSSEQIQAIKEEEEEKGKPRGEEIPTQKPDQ

[5] = target: T2, Prostaglandin G/H synthase 1 (Homo sapiens, UniProt P23219); assay type: functional
T2 sequence (P23219 whole entry): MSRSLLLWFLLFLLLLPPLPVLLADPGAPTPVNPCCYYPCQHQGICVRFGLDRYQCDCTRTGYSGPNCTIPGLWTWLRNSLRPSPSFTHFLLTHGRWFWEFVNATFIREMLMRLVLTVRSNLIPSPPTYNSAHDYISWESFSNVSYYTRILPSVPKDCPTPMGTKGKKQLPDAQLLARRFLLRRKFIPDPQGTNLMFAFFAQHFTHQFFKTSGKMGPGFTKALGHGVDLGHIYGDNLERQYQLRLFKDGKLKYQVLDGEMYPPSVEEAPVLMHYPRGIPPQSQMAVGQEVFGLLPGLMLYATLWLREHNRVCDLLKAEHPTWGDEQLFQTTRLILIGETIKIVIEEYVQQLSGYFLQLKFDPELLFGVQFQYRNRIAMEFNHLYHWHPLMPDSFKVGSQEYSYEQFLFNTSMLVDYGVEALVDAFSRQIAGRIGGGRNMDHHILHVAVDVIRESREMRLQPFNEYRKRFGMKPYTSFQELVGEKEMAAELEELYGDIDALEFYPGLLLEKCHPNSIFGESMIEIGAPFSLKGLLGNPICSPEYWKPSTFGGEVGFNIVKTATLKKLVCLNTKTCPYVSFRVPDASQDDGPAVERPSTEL

[6] = target: T2, Prostaglandin G/H synthase 1; assay type: functional; remark: listed apart in the source
[7] = target: Sodium-dependent dopamine transporter (Homo sapiens, UniProt Q01959)
Sodium-dependent dopamine transporter, sequence (Q01959 whole entry): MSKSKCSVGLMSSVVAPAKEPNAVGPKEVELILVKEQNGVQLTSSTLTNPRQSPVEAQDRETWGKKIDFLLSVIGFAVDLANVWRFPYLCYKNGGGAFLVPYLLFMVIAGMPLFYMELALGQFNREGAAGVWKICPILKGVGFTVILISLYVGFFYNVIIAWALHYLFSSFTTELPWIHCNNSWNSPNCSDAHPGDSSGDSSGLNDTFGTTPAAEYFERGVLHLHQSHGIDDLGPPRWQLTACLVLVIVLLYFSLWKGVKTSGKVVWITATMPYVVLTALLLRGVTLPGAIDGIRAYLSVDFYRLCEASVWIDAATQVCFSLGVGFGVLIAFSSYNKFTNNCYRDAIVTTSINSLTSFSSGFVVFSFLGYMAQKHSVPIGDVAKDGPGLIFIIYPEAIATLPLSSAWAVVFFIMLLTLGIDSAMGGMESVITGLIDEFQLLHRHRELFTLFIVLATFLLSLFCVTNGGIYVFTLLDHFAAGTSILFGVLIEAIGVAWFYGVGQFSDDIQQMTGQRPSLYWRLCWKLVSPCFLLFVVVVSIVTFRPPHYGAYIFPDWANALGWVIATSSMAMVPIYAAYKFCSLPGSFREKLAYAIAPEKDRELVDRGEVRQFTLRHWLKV

Thromboxane A2 receptor [8] = target: T3, Thromboxane A2 receptor (Homo sapiens, UniProt P21731); assay type: functional, cell-based
T3 sequence (P21731 whole entry): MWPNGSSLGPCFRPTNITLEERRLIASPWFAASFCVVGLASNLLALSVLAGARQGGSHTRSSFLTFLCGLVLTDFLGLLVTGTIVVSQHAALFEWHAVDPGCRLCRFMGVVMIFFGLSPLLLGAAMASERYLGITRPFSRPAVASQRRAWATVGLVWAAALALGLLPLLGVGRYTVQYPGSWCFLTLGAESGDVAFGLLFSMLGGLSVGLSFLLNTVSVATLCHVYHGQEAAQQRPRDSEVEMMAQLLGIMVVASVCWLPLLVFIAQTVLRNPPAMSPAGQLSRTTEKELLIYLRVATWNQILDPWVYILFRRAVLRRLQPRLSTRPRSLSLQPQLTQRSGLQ

Thromboxane A2 receptor [9] = target: T3, Thromboxane A2 receptor; assay type: functional, cell-based; remark: listed apart in the source
[10] = target: T4, Alpha-1A adrenergic receptor (Homo sapiens, UniProt P35348); assay type: functional, cell-based
T4 sequence (P35348 whole entry): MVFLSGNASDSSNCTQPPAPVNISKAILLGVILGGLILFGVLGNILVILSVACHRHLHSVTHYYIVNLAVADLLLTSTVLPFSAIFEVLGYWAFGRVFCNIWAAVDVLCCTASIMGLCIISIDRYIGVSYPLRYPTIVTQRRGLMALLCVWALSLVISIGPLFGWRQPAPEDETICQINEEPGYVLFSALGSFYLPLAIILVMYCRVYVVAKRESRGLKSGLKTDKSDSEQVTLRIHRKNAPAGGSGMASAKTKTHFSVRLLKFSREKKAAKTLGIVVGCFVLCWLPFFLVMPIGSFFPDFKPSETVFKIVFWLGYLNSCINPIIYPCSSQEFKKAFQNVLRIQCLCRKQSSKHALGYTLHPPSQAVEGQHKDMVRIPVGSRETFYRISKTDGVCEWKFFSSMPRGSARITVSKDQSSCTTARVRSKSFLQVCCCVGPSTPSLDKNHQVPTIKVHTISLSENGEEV

Estrogen receptor = target: T5, Estrogen receptor (Homo sapiens, UniProt P03372)
T5 sequence (P03372 whole entry): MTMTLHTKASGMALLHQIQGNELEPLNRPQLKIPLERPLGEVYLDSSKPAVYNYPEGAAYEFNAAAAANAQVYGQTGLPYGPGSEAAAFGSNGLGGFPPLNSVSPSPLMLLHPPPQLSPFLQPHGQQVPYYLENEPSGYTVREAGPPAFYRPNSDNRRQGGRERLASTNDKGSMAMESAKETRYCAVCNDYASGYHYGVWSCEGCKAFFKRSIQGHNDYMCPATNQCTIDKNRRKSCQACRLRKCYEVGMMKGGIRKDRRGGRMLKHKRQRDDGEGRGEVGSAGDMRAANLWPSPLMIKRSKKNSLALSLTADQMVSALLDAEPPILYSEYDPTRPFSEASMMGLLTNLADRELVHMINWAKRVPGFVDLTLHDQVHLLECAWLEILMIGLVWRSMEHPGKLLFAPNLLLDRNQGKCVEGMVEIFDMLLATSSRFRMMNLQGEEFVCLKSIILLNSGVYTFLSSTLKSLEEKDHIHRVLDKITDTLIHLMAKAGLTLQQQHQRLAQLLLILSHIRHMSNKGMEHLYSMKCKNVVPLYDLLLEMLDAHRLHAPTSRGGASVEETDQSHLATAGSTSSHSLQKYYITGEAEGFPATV
Further: assay procedure not described here.

Acetylcholinesterase, sequence (P22303 whole entry): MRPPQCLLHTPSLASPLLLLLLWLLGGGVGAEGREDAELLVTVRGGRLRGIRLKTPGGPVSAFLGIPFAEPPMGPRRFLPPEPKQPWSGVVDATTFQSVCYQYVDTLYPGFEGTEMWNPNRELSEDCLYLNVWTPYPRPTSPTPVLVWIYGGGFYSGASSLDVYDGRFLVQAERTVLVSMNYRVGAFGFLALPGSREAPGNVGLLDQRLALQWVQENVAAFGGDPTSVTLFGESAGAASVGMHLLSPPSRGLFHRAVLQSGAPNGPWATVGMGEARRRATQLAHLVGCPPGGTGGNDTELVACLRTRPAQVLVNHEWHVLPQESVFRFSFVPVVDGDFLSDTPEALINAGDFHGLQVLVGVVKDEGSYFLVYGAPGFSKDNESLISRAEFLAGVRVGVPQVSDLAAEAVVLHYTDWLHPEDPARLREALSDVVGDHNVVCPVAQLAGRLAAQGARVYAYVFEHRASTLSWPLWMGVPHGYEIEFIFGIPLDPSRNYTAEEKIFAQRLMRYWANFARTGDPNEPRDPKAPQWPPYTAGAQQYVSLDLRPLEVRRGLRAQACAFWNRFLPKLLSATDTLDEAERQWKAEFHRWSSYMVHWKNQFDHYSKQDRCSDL
D(3) dopamine receptor, sequence (P35462 whole entry): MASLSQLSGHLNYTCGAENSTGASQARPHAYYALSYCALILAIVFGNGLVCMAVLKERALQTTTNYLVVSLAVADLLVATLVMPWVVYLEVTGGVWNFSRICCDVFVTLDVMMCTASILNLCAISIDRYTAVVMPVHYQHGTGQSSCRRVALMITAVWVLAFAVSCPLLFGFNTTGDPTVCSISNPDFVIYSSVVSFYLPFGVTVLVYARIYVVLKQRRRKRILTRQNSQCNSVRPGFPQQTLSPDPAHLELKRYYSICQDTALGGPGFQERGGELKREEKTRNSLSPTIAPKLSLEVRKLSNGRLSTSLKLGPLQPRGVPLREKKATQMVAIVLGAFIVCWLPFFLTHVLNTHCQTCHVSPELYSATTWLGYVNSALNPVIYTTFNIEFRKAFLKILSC

Q: Which AC50 (Acetylcholinesterase) does the source give for `CO/N=C(\C(=O)N[C@@H]1C(=O)N2C(C(=O)OCOC(=O)C(C)(C)C)=C(C)CS[C@H]12)c1csc(N)n1` here?
A: Its AC50 is over 30 µM.

Q: And the AC50 (D(3) dopamine receptor)?
A: Its AC50 is over 30 µM.

Q: What about the AC50 (Prothrombin) of the same molecule?
A: The AC50 was over 30 µM.

Q: What about the AC50 [1] of the same molecule?
A: The AC50 was over 30 µM.

Q: And the AC50 [2]?
A: The AC50 was over 30 µM.

Q: What about the AC50 [3] of the same molecule?
A: Its AC50 is over 30 µM.

Q: And the AC50 (Mu-type opioid receptor)?
A: Its AC50 is over 30 µM.

Q: And the AC50 [4]?
A: The AC50 was over 30 µM.

Q: And the AC50 [5]?
A: Its AC50 is 23.2 µM.

Q: And the AC50 [6]?
A: The AC50 was over 30 µM.

Q: And the AC50 [7]?
A: The AC50 was over 30 µM.

Q: What about the AC50 (Thromboxane A2 receptor [8]) of the same molecule?
A: Its AC50 is over 30 µM.

Q: What about the AC50 (Thromboxane A2 receptor [9]) of the same molecule?
A: The AC50 was over 30 µM.

Q: For `NS(=O)(=O)c1cc(-c2nnn[nH]2)c(NCc2cccs2)cc1Cl` [AZOSEMIDE], which AC50 [2] is on record?
A: The AC50 was over 30 µM.

Q: How did the AC50 (Acetylcholinesterase) turn out when `CCS(=O)(=O)N1CC(CC#N)(n2cc(-c3ncnc4[nH]ccc34)cn2)C1` [BARICITINIB] was run?
A: Its AC50 is over 10 µM.

Q: What about the AC50 [10] of the same molecule?
A: The AC50 was over 10 µM.

Q: What about the AC50 (D(3) dopamine receptor) of the same molecule?
A: Its AC50 is over 30 µM.

Q: And the AC50 (Estrogen receptor)?
A: The AC50 was over 30 µM.

Q: And the AC50 (Prothrombin)?
A: The AC50 was over 30 µM.

Q: What about the AC50 [1] of the same molecule?
A: Its AC50 is over 30 µM.

Q: What about the AC50 [3] of the same molecule?
A: Its AC50 is over 30 µM.

Q: What about the AC50 (Mu-type opioid receptor) of the same molecule?
A: The AC50 was over 30 µM.

Q: And the AC50 [4]?
A: The AC50 was over 30 µM.

Q: And the AC50 [5]?
A: The AC50 was over 30 µM.

Q: And the AC50 [6]?
A: Its AC50 is over 30 µM.

Q: What about the AC50 [7] of the same molecule?
A: Its AC50 is over 30 µM.

Q: And the AC50 (Thromboxane A2 receptor [8])?
A: Its AC50 is over 30 µM.

Q: And the AC50 (Thromboxane A2 receptor [9])?
A: The AC50 was over 10 µM.

Q: For `O=C(Cn1ccnc1[N+](=O)[O-])NCc1ccccc1` [BENZNIDAZOLE], which AC50 (Acetylcholinesterase) is on record?
A: Its AC50 is over 30 µM.

Q: And the AC50 (D(3) dopamine receptor)?
A: The AC50 was over 30 µM.

Q: And the AC50 (Estrogen receptor)?
A: Its AC50 is over 30 µM.

Q: What about the AC50 (Prothrombin) of the same molecule?
A: Its AC50 is over 30 µM.

Q: What about the AC50 [1] of the same molecule?
A: Its AC50 is over 30 µM.

Q: And the AC50 [3]?
A: Its AC50 is over 30 µM.

Q: And the AC50 (Mu-type opioid receptor)?
A: Its AC50 is over 30 µM.

Q: What about the AC50 [4] of the same molecule?
A: Its AC50 is over 30 µM.

Q: What about the AC50 [5] of the same molecule?
A: Its AC50 is over 30 µM.

Q: What about the AC50 [6] of the same molecule?
A: The AC50 was over 30 µM.

Q: And the AC50 [7]?
A: The AC50 was over 30 µM.

Q: What about the AC50 (Thromboxane A2 receptor [8]) of the same molecule?
A: Its AC50 is over 30 µM.

Q: And the AC50 (Thromboxane A2 receptor [9])?
A: Its AC50 is over 30 µM.

Q: How did the AC50 [2] turn out when `C[N+](C)(C)CC(=O)O` [BETAINE] was run?
A: The AC50 was over 30 µM.

Q: Which AC50 [2] does the source give for `CCCC(=O)N1CCCN(c2nc(N)c3cc(OC)c(OC)cc3n2)CC1` [BUNAZOSIN] here?
A: Its AC50 is 4.5 µM.

Q: `C[N+](C)(C)CCOC(N)=O` [CARBAMOYLCHOLINE] was tested. Which AC50 [2] did it give?
A: Its AC50 is over 30 µM.

Q: For `N[C@@H](CSCC(=O)O)C(=O)O` [CARBOCYSTEINE], which AC50 [2] is on record?
A: Its AC50 is over 30 µM.

Q: With `COCC1=C(C(=O)OC(C)OC(=O)OC(C)C)N2C(=O)[C@@H](NC(=O)/C(=N\OC)c3csc(N)n3)[C@H]2SC1` (stereo not given in full) [CEFPODOXIME PROXETIL] as the molecule, how does the AC50 (Acetylcholinesterase) read?
A: The AC50 was over 30 µM.

Q: And the AC50 (D(3) dopamine receptor)?
A: Its AC50 is over 30 µM.

Q: What about the AC50 (Estrogen receptor) of the same molecule?
A: The AC50 was over 30 µM.

Q: What about the AC50 (Prothrombin) of the same molecule?
A: Its AC50 is over 30 µM.

Q: And the AC50 [1]?
A: The AC50 was over 30 µM.

Q: And the AC50 [2]?
A: Its AC50 is over 30 µM.

Q: What about the AC50 [3] of the same molecule?
A: Its AC50 is over 30 µM.

Q: What about the AC50 (Mu-type opioid receptor) of the same molecule?
A: The AC50 was over 30 µM.

Q: And the AC50 [4]?
A: The AC50 was over 30 µM.

Q: And the AC50 [5]?
A: Its AC50 is 18.1 µM.

Q: What about the AC50 [6] of the same molecule?
A: The AC50 was over 30 µM.

Q: What about the AC50 [7] of the same molecule?
A: Its AC50 is over 30 µM.

Q: What about the AC50 (Thromboxane A2 receptor [8]) of the same molecule?
A: Its AC50 is over 30 µM.

Q: What about the AC50 (Thromboxane A2 receptor [9]) of the same molecule?
A: The AC50 was over 30 µM.

Q: `CC(C)(N)Cc1ccc(Cl)cc1` [CHLORPHENTERMINE] was tested. Which AC50 [2] did it give?
A: Its AC50 is over 30 µM.

Q: Which results are given for `NS(=O)(=O)c1cc2c(cc1Cl)NC(CC1CCCC1)NS2(=O)=O` (stereo not given) [CYCLOPENTHIAZIDE]?
A: AC50 (Acetylcholinesterase): > 30 µM; AC50 (D(3) dopamine receptor): > 30 µM; AC50 (Prothrombin): > 30 µM; AC50 [1]: > 30 µM; AC50 [2]: > 30 µM; AC50 [3]: > 30 µM; AC50 (Mu-type opioid receptor): > 30 µM; AC50 [4]: > 30 µM; AC50 [5]: > 30 µM; AC50 [6]: > 30 µM; AC50 [7]: > 30 µM; AC50 (Thromboxane A2 receptor [8]): > 30 µM; AC50 (Thromboxane A2 receptor [9]): > 30 µM

Q: Which AC50 [2] does the source give for `CN(C)[C@@H]1C(O)=C(C(N)=O)C(=O)[C@@]2(O)C(O)=C3C(=O)c4c(O)ccc(Cl)c4[C@@H](O)[C@H]3C[C@@H]12` [DEMECLOCYCLINE] here?
A: Its AC50 is over 30 µM.

Q: For `NS(=O)(=O)c1cc(Cl)c(Cl)c(S(N)(=O)=O)c1` [DICHLORPHENAMIDE], which AC50 [2] is on record?
A: Its AC50 is over 30 µM.
